Assay results published in ChEMBL document CHEMBL1127057, “Synthesis, optical resolution, absolute configuration, and preliminary pharmacology of (+)- and (-)-cis-2,3,3a,4,5,9b-hexahydro-1-methyl-1H- pyrrolo-[3,2-h]isoquinoline, a structural analog of nicotine” (J Med Chem, 1993).
pKd, pKi: −log10 of the molar value.

What was measured:
Mus musculus [1] = species on record: Mus musculus; assay: Inhibition of spontaneous activity in mice; type: functional
[2] = Binding affinity was evaluated towards nicotine receptor in mouse brain; type: tissue-based
Mus musculus [3] = species on record: Mus musculus; assay: Inhibition of tail-flick response (antinociception) in mice; type: functional
Mus musculus [4] = species on record: Mus musculus; assay: Equilibrium dissociation constant (Kd) was determined

Compound CN1CCC2CCc3ccncc3C21 (single isomer, unassigned; (-)) has an ED50 (Mus musculus [1]) of 61.7 µmol/kg and a pKi [2] of 6.22.
In the case of CN1CCC2CCc3ccncc3C21 (single isomer, unassigned; (+)), the ED50 (Mus musculus [1]) was 7.13 µmol/kg and the ED50 (Mus musculus [3]) was 7.45 µmol/kg.
With CN1CCC[C@H]1c1cccnc1 [NICOTINE] the ED50 (Mus musculus [1]) was 4.44 µmol/kg, the ED50 (Mus musculus [3]) was 4.81 µmol/kg and the pKd (Mus musculus [4]) was 8.85.
Compound c1cc2c(cn1)C1NCCC1CC2 (racemic) has an ED50 (Mus musculus [1]) of 24.8 µmol/kg, an ED50 (Mus musculus [3]) of 25.7 µmol/kg and a pKi [2] of 6.78.
